Laboratory results published in patent US7745390B2, “Antimicrobial peptides” (priority 2005, dated 2010).
Values after ≈ are worked out from the molar mass of the structure shown. Square brackets hold non-standard residues; d marks the D form. Ends that are not written are not given here. Peptide text beside a SMILES is read from it.

B1: recombinant granulysin: protein expressed by human cytotoxic T lymphocytes and natural killer cells, recombinant form (protein, UniProt P22749 23-145, looked up)
Granulysin: RLSPEYYDLARAHLRDEEKSCPCLAQEGPQGDLLTKTQELGRDYRTCLTIVQKLKKMVDKPTQRSVSNAATRVCRTGRSRWRDVCRNFMRRYQSRVTQGLVAGETAQQICEDLRLCIPSTGPL

How the values were obtained:
[1] = system: Jurkat cells; assay type: cell-based
Description: (§1) To further investigate the contribution of secondary structure to function, additional Peptides G16-G19 (beyond peptides G1-G15, previously reported) were synthesized. Peptide G16 is identical to G13, except that a D-alanine residue was substituted for the L-alanine at position 30. […] In peptide G17, the two arginine residues in loop two are substituted with glutamine.
(§2) As shown above, substitution of the two arginine residues in Loop 2 with glutamine abrogates activity against Jurkat cells but only slightly affects lysis of S. typhimurium. Peptide G18 is identical to G14 except that a D-arginine was substituted at position 46. […] Peptide G19 incorporates both the R→Q substitutions as well as the D-arginine at position 46.

[2] = system: B. cereus; assay type: cell-based; conditions: pH 7.2
Summary of the method: (§3)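 Single-well growth assay: peptide + bacteria (~5×10^6 CFU/ml) in 10 mM phosphate pH 7.2/0.03% LB, 3 h 37 °C; add LB, overnight; OD600. MIC = lowest conc., no growth; IC50 = 50% growth vs medium.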

[3] = system: E. coli DH5a; assay type: cell-based; conditions: DH5a; for E. coli DH5a MIC / IC50: pH 7.2
Summary of the method: as §3

[4] = system: Salmonella; assay type: cell-based, S. typhimurium; conditions: pH 7.2
Summary of the method: as §3

[5] = system: human peripheral blood mononuclear cells (PBMC); test: Propidium iodide uptake in PBMC; assay type: cell-based; conditions: for PI uptake in normal human PBMC: 50 μM peptide, three hours
Description: The second assay for effects on mammalian cells involved isolating human peripheral blood mononuclear cells (PBMC) and testing peptide induced uptake of propidium iodide (PI), a measure of membrane disruption. […] Thus, the vast majority of granulysin peptide derivatives are not toxic to mammalian cells even at high concentrations.

[6] = system: U937 cells; test: Lysis of tumor cells: apoptosis of U937 by 3H-thymidine; conditions: U937, 50 μM peptide, 4-6 hours
Experimental: The effects were tested in two ways. First, peptides were tested for the ability to lyse tumor cells, as judged by induction of apoptosis in the monocyte-like cell line U937. U937 cells were cultured overnight in DMEM supplemented with 10% FCS plus 1 μCi/ml ^3H-thymidine. The next day, cells were washed and cultured in DMEM/10% FCS in the presence of 50 μM peptide for 4-6 hours. Cells were then harvested and ^3H-thymidine determined by beta-scintillation counting. Apoptosis results in DNA fragmentation, so the ^3H-thymidine is reduced in cells undergoing apoptosis.

[7] = system: bacterial strains; test: organism not typed; assay type: cell-based
Experimental: Three preferred peptides G11.46, G12.21 and G14.15, discussed above, were further tested for antimicrobial efficacy under various conditions using the 10% FCS/DMEM assay as described under CFU assay. The incubation times with the bacteria and peptide was three hours, at which time the bacteria were diluted and plated on agar. […] The MIC for each compound is highlighted.
Table 9 below repeats some data presented above in Tables 6, 7, and 8.

[8] = system: S. typhimurium; test: Lysis of bacteria by counting bacterial colonies on plates; assay type: cell-based; conditions: colony counting
Description: as §1, §2
The experiments described above characterizing the activity of granulysin peptides G1-G18 relied on counting bacterial colonies on plates. This assay is quite labor intensive and would not allow evaluation of many different compounds on a number of different microbes. Therefore, we optimized an assay in which the entire procedure could be completed in a single microtiter well. […] The OD at 600 nm is read on an ELISA plate reader. […]

[9] = system: E. coli; conditions: previously reported; cited from earlier work

Row | Molecule | lysis of Jurkat cells [1] | B. cereus MIC [2] | IC50 [2] | E. coli DH5a MIC [3] | IC50 [3] | IC50 [4] | Salmonella MIC [4] | toxicity against mammalian cells [5] | further results
1 | CSCC[C@H](NC(=O)[C@H](Cc1ccccc1)NC(=O)[C@H](CC(N)=O)NC(=O)[C@@H](CCCNC(=N)N)NC(=O)[C@H](CS)NC(=O)[C@@H](NC(=O)[C@H](CC(=O)O)NC(=O)[C@H](CCCNC(=N)N)NC(=O)[C@H](Cc1c[nH]c2ccccc12)NC(=O)[C@H](CCCNC(=N)N)NC(=O)[C@H](CO)NC(=O)[C@H](CCCNC(=N)N)NC(=O)CN)C(C)C)C(=O)N[C@@H](CCCNC(=N)N)C(=O)N[C@@H](CCCNC(=N)N)C(=O)O [Peptide G18, GRSRWRDVCrNFMRR] (H-GRSRWRDVC[dR]NFMRR-OH) | loses some activity against Jurkat cells | – | – | – | – | – | – | – | –
2 | CSCC[C@@H](NC(=O)[C@@H](Cc1ccccc1)NC(=O)[C@@H](CCCNC(=N)N)NC(=O)[C@@H](CCCNC(=N)N)NC(=O)[C@@H](CO)NC(=O)[C@H](NC(=O)[C@@H](CCCNC(=N)N)NC(=O)[C@H](N)CCCNC(=N)N)C(C)C)C(=O)N[C@H](CCCNC(=N)N)C(=O)N[C@H](CCCNC(=N)N)C(=O)N[C@H](Cc1ccc(O)cc1)C(=O)N[C@H](CCCNC(=N)N)C(=O)N[C@H](CO)C(=O)N[C@H](CCCNC(=N)N)C(=O)N[C@H](CCCNC(=N)N)C(=O)N1CCC[C@@H]1C(=O)N[C@H](CCCNC(=N)N)C(=O)N[C@H](CCCNC(=N)N)C(=O)N[C@H](CC(C)C)C(=O)N[C@@H](C(=O)O)C(C)C [Peptide G12.35, rrvsrrfmrryrsrrprrlv] (H-[dR][dR][dV][dS][dR][dR][dF][dM][dR][dR][dY][dR][dS][dR][dR][dP][dR][dR][dL][dV]-OH) | – | 0.75 µM | 450 nM | 0.11 µM | < 78 nM | 210 nM | 0.32 µM | somewhat less toxic against mammalian cells | PI uptake in normal human PBMC [5]: caused PI uptake in normal human PBMC; apoptosis of tumor cells [6]: cause apoptosis of tumor cells
3 | GRSRWRDVCRNFMRR [Peptide G14, GRSRWRDVCRNFMRR, reference compound] | lyses both bacteria and mammalian cells | 2.8 µM | 1750 nM | 1.37 µM | 890 nM | 890 nM | 1.37 µM | – | –
4 | CSCC[C@@H](NC(=O)[C@H]1CCCN1C(=O)[C@@H](CCCNC(=N)N)NC(=O)[C@@H](CCCNC(=N)N)NC(=O)[C@@H](CO)NC(=O)[C@H](NC(=O)[C@@H](CCCNC(=N)N)NC(=O)[C@H](N)CCCNC(=N)N)C(C)C)C(=O)N[C@H](CCCNC(=N)N)C(=O)N[C@H](CCCNC(=N)N)C(=O)N[C@H](Cc1ccc(O)cc1)C(=O)N[C@H](CCCNC(=N)N)C(=O)N[C@H](CO)C(=O)N[C@H](CCCNC(=N)N)C(=O)N[C@H](CCCNC(=N)N)C(=O)N1CCC[C@@H]1C(=O)N[C@H](CCCNC(=N)N)C(=O)N[C@H](CCCNC(=N)N)C(=O)N[C@H](CC(C)C)C(=O)N[C@@H](C(=O)O)C(C)C [Peptide G12.21, rrvsrrpmrryrsrrprrlv] (H-[dR][dR][dV][dS][dR][dR][dP][dM][dR][dR][dY][dR][dS][dR][dR][dP][dR][dR][dL][dV]-OH) | – | 0.35 µM | 210 nM | 0.2 µM | < 78 nM | 210 nM | 0.35 µM | no toxicity | MIC [3]: 0.2 µM (≈ 0.542 µg/mL); MIC ([7]; ATCC#25922, 3 h): 0.63 µM (≈ 1.71 µg/mL); MIC ([7]; ATCC#29213, 3 h): 0.32 to 0.63 µM; MIC ([7]; ATCC#53522, 3 h): 0.02 µM (≈ 0.0542 µg/mL); MIC ([7]; SL1344, 3 h): 1.25 to 2.5 µM
5 | CC[C@@H](C)[C@@H](NC(=O)[C@@H](CCCNC(=N)N)NC(=O)[C@@H](CCCNC(=N)N)NC(=O)[C@@H](CO)NC(=O)[C@@H](CCCNC(=N)N)NC(=O)[C@@H](Cc1ccc(O)cc1)NC(=O)[C@@H](CCCNC(=N)N)NC(=O)[C@@H](CCCNC(=N)N)NC(=O)[C@@H](CCSC)NC(=O)[C@@H](Cc1ccccc1)NC(=O)[C@@H](CCCNC(=N)N)NC(=O)[C@@H](CCCNC(=N)N)NC(=O)[C@@H](CO)NC(=O)[C@H](NC(=O)[C@@H](CCCNC(=N)N)NC(=O)[C@H](N)CCCNC(=N)N)C(C)C)C(=O)N[C@H](CCCNC(=N)N)C(=O)N[C@H](CCCNC(=N)N)C(=O)N[C@H](CC(C)C)C(=O)N[C@@H](C(=O)O)C(C)C [Peptide G12.34, rrvsrrfmrryrsrrirrlv] (H-[dR][dR][dV][dS][dR][dR][dF][dM][dR][dR][dY][dR][dS][dR][dR][dI][dR][dR][dL][dV]-OH) | – | 0.31 µM | 120 nM | 0.2 µM | 110 nM | 210 nM | 0.78 µM | somewhat lytic against mammalian cells | PI uptake in normal human PBMC [5]: caused PI uptake in normal human PBMC; apoptosis of tumor cells [6]: cause apoptosis of tumor cells
6 | GQSQWRDVCrNFMRR [Peptide G19] | – | – | – | – | – | – | – | – | lysis of bacteria (S. typhimurium) [8]: behaves identically to G115
7 | QRSVSNAaTRVCRTGQSQW [Peptide G17] | Neither peptide G16 nor G17 lysed Jurkat cells in an appreciable way | – | – | – | – | – | – | – | lysis of bacteria (S. typhimurium) [8]: no longer exhibits activity against S. typhimurium
8 | B1 | – | – | – | – | – | – | – | – | activity depending on ionic strength of media [9]: completely loses activity in media>50 mM salt
